# The supplement of paper PMC10883282
# Counter-ions that a name gives are not always drawn. ± gives the standard deviation of the averaged measurements.
# System: MES-SA
# Experiment: relative viability vs DMSO control (72 h) (fraction); higher = more viable cells
# Outline: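 Plates held 72 h at 37 °C and 5% CO2 contained sarcoma cell lines seeded in 384-well format to reach 80–90% confluence, plus 2.5 µl of serially diluted compound added after 24 h. Source plate concentrations ran from 10 mM to 0.0002 mM, with 0.1% DMSO as vehicle and a 5 µM positive control. Percent growth from ATPLite readings, averaged over up to triplicate wells, gave relative viability. Values were rescaled with 1 as full and 0 as none.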
SMILES,relative viability (0.00017 µM),relative viability (0.00051 µM),relative viability (0.00152 µM),relative viability (0.00457 µM),relative viability (0.01372 µM),relative viability (0.04115 µM),relative viability (0.1235 µM),relative viability (0.3704 µM),relative viability (1.111 µM),relative viability (3.333 µM),relative viability (10 µM)
CCN1CCN(Cc2ccc(Nc3ncc(F)c(-c4cc(F)c5nc(C)n(C(C)C)c5c4)n3)nc2)CC1 [Abemaciclib],0.883 ± 0.026,0.901 ± 0.035,0.878 ± 0.02,0.873 ± 0.031,0.876 ± 0.05,0.84 ± 0.046,0.736 ± 0.037,0.61 ± 0.031,0.435 ± 0.012,0.361 ± 0.0072,0.348 ± 0.023
CC(C)NC(=O)C1CCC(n2c(NC(=O)c3ccc(F)cc3)nc3ccc(CN4CCC(C(C)(C)O)CC4)cc32)CC1 (centres undefined) [Belizatinib],0.942 ± 0.023,0.92 ± 0.026,0.934 ± 0.012,0.957 ± 0.023,0.932 ± 0.018,0.9451 ± 0.0052,0.9316 ± 0.0039,0.934 ± 0.037,0.824 ± 0.022,0.523 ± 0.024,0.148 ± 0.016
CC[C@H](Nc1ncnc2[nH]cnc12)c1nc2cccc(F)c2c(=O)n1-c1ccccc1 [Idelalisib],1.01 ± 0.021,1 ± 0.034,0.993 ± 0.03,0.964 ± 0.015,0.971 ± 0.038,0.972 ± 0.036,0.986 ± 0.022,0.937 ± 0.016,0.889 ± 0.031,0.867 ± 0.029,0.711 ± 0.023
CC(C)(C)c1cc(NC(=O)Nc2ccc(-c3cn4c(n3)sc3cc(OCCN5CCOCC5)ccc34)cc2)no1 [Quizartinib],0.944 ± 0.012,0.974 ± 0.019,0.94 ± 0.015,0.935 ± 0.046,0.937 ± 0.023,0.931 ± 0.016,0.953 ± 0.025,0.933 ± 0.031,0.823 ± 0.017,0.602 ± 0.041,0.577 ± 0.025
Cc1cnc(Nc2ccc(OCCN3CCCC3)cc2)nc1Nc1cccc(S(=O)(=O)NC(C)(C)C)c1 [Fedratinib],0.966 ± 0.046,0.959 ± 0.035,0.953 ± 0.026,0.937 ± 0.029,0.949 ± 0.025,0.907 ± 0.018,0.861 ± 0.018,0.679 ± 0.03,0.2659 ± 0.0019,0.18 ± 0.0027,0.028 ± 0.0026
CC1(C)CNc2cc(NC(=O)c3cccnc3NCc3ccncc3)ccc21 [Motesanib],0.93 ± 0.044,0.946 ± 0.034,0.962 ± 0.01,0.937 ± 0.023,0.949 ± 0.061,0.947 ± 0.047,0.961 ± 0.02,1 ± 0.044,0.96 ± 0.035,0.948 ± 0.013,0.849 ± 0.041
Nc1cc(C(F)(F)F)c(-c2cc(N3CCOCC3)nc(N3CCOCC3)n2)cn1 [Buparlisib],0.897 ± 0.012,0.902 ± 0.0092,0.895 ± 0.011,0.932 ± 0.022,0.907 ± 0.023,0.872 ± 0.022,0.811 ± 0.022,0.677 ± 0.025,0.208 ± 0.01,0.0825 ± 0.0014,0.037 ± 0.0019
Cc1cc(C)c(/C=C2\C(=O)Nc3ccccc32)[nH]1 [Semaxanib],0.908 ± 0.058,0.866 ± 0.02,0.866 ± 0.022,0.892 ± 0.027,0.882 ± 0.04,0.861 ± 0.061,0.871 ± 0.059,0.895 ± 0.035,0.889 ± 0.044,0.867 ± 0.041,0.798 ± 0.048
CCc1cc2c(cc1N1CCC(N3CCOCC3)CC1)C(C)(C)c1[nH]c3cc(C#N)ccc3c1C2=O [Alectinib],0.896 ± 0.018,0.91 ± 0.026,0.895 ± 0.045,0.893 ± 0.036,0.889 ± 0.068,0.944 ± 0.035,0.953 ± 0.035,0.9459 ± 0.0094,0.942 ± 0.018,0.968 ± 0.049,0.959 ± 0.035
Cn1cnc2c(F)c(Nc3ccc(Br)cc3F)c(C(=O)NOCCO)cc21 [Binimetinib],0.927 ± 0.027,0.9232 ± 0.0083,0.927 ± 0.017,0.894 ± 0.042,0.892 ± 0.024,0.84 ± 0.025,0.793 ± 0.02,0.7569 ± 0.0022,0.782 ± 0.025,0.741 ± 0.037,0.735 ± 0.059
C=CC(=O)Nc1cccc(Oc2nc(Nc3ccc(N4CCN(C)CC4)cc3)nc3ccsc23)c1 [Olmutinib],0.931 ± 0.038,0.964 ± 0.027,0.916 ± 0.037,0.937 ± 0.055,0.918 ± 0.036,0.955 ± 0.045,0.968 ± 0.035,0.954 ± 0.012,0.9273 ± 0.0055,0.751 ± 0.029,0.448 ± 0.025
CN1CCN(c2ccc3nc(-c4c(N)c5c(F)cccc5[nH]c4=O)[nH]c3c2)CC1 [Dovitinib],0.945 ± 0.032,0.974 ± 0.029,0.95 ± 0.021,0.95 ± 0.017,0.9483 ± 0.0052,0.9283 ± 0.009,0.921 ± 0.04,0.836 ± 0.041,0.4858 ± 0.0047,0.191 ± 0.012,0.0897 ± 0.0022
O=C(Cc1ccc(-c2ccc(OCCN3CCOCC3)cc2)cn1)NCc1ccccc1 [KX2-391],0.988 ± 0.041,0.976 ± 0.018,0.946 ± 0.018,0.949 ± 0.026,0.9439 ± 0.0022,0.448 ± 0.042,0.2711 ± 0.0024,0.179 ± 0.0046,0.143 ± 0.0031,0.133 ± 0.004,0.13 ± 0.0027
C[C@@H]1COCCN1c1cc(-c2ccnn2C)c2ccnc(-c3ccn[nH]3)c2n1,0.952 ± 0.028,0.934 ± 0.025,0.9269 ± 0.0056,0.924 ± 0.028,0.878 ± 0.013,0.752 ± 0.019,0.489 ± 0.012,0.31 ± 0.022,0.175 ± 0.0043,0.122 ± 0.0046,0.113 ± 0.003
CNC(=O)c1cc(Oc2ccc(NC(=O)Nc3ccc(Cl)c(C(F)(F)F)c3)c(F)c2)ccn1 [Regorafenib],0.973 ± 0.026,0.9876 ± 0.0026,0.972 ± 0.037,0.955 ± 0.036,0.968 ± 0.022,0.96 ± 0.03,0.997 ± 0.067,0.965 ± 0.045,0.923 ± 0.064,0.735 ± 0.038,0.246 ± 0.01
Cc1ccc(NC(=O)c2ccc(CN3CCN(C)CC3)cc2)cc1Nc1nc(-c2cccnc2)cs1 [Masitinib],0.978 ± 0.013,0.969 ± 0.014,0.955 ± 0.021,0.96 ± 0.028,0.952 ± 0.011,0.956 ± 0.015,0.912 ± 0.025,0.905 ± 0.026,0.735 ± 0.029,0.445 ± 0.017,0.11 ± 0.011
CNC(=O)c1ccc(-c2cnc3ncc(Cc4ccc5ncccc5c4)n3n2)cc1F [Capmatinib],0.93 ± 0.025,0.959 ± 0.037,0.958 ± 0.028,0.953 ± 0.057,0.943 ± 0.012,0.945 ± 0.036,0.982 ± 0.012,0.934 ± 0.012,0.937 ± 0.055,0.867 ± 0.035,0.837 ± 0.025
CCCS(=O)(=O)Nc1ccc(F)c(C(=O)c2c[nH]c3ncc(-c4ccc(Cl)cc4)cc23)c1F [Vemurafenib],0.941 ± 0.024,0.951 ± 0.025,0.957 ± 0.013,0.957 ± 0.026,0.955 ± 0.031,0.953 ± 0.018,0.967 ± 0.028,0.995 ± 0.022,0.9726 ± 0.0075,0.782 ± 0.02,0.51 ± 0.01
Cc1ccc(F)c(NC(=O)Nc2ccc(-c3cccc4[nH]nc(N)c34)cc2)c1 [Linifanib],0.979 ± 0.013,0.968 ± 0.02,0.942 ± 0.014,0.956 ± 0.035,0.974 ± 0.01,0.971 ± 0.015,0.969 ± 0.011,0.918 ± 0.033,0.935 ± 0.01,0.75 ± 0.21,0.933 ± 0.014
CC(C)N1CCN(Cc2cnc(-c3cc(-c4cccc5[nH]ccc45)cc4[nH]ncc34)o2)CC1 [Nemiralisib],0.967 ± 0.032,0.961 ± 0.022,0.953 ± 0.05,0.958 ± 0.05,0.977 ± 0.033,0.926 ± 0.039,0.979 ± 0.047,0.964 ± 0.043,0.911 ± 0.024,0.764 ± 0.028,0.486 ± 0.027
COCc1c(-c2cc3cc(C)cc(OC)c3s2)c2c(N)ncnn2c1CN1CCNC(=O)C1 [Rogaratinib],0.974 ± 0.012,0.9554 ± 0.0066,0.943 ± 0.014,0.929 ± 0.014,0.939 ± 0.025,0.949 ± 0.046,0.849 ± 0.018,0.732 ± 0.02,0.664 ± 0.035,0.565 ± 0.012,0.389 ± 0.019
Cc1cc(Nc2ncnc3ccc(NC4=NC(C)(C)CO4)cc23)ccc1Oc1ccn2ncnc2c1 [Tucatinib],0.988 ± 0.052,0.9678 ± 0.005,0.961 ± 0.03,0.95 ± 0.022,0.948 ± 0.031,0.939 ± 0.035,0.916 ± 0.013,0.89 ± 0.049,0.857 ± 0.0086,0.796 ± 0.02,0.515 ± 0.042
O=C(Nc1cnn2ccc(N3CCC[C@@H]3c3cc(F)ccc3F)nc12)N1CC[C@H](O)C1 [Larotrectinib],0.929 ± 0.024,0.932 ± 0.046,0.923 ± 0.054,0.896 ± 0.056,0.931 ± 0.022,0.929 ± 0.039,0.894 ± 0.073,0.897 ± 0.022,0.916 ± 0.027,0.893 ± 0.048,0.877 ± 0.015
CN1CCC(COc2cnc(-c3cccc(Cn4nc(-c5cccc(C#N)c5)ccc4=O)c3)nc2)CC1 [Tepotinib],0.962 ± 0.038,0.959 ± 0.0044,0.95 ± 0.023,0.974 ± 0.033,0.955 ± 0.043,0.928 ± 0.035,0.939 ± 0.028,0.9528 ± 0.0065,0.94 ± 0.042,0.875 ± 0.027,0.752 ± 0.024
C[C@@H]1CCN(C(=O)CC#N)C[C@@H]1N(C)c1ncnc2[nH]ccc12 [Tofacitinib],0.985 ± 0.035,0.955 ± 0.064,0.96 ± 0.043,0.963 ± 0.05,0.966 ± 0.033,0.976 ± 0.025,0.974 ± 0.031,0.953 ± 0.028,0.952 ± 0.056,0.927 ± 0.042,0.873 ± 0.049
N#CC[C@H](C1CCCC1)n1cc(-c2ncnc3[nH]ccc23)cn1 [Ruxolitinib],1.02 ± 0.024,1.01 ± 0.024,0.997 ± 0.015,0.962 ± 0.058,0.992 ± 0.03,0.979 ± 0.058,0.957 ± 0.042,0.981 ± 0.02,0.84 ± 0.04,0.825 ± 0.042,0.679 ± 0.035
C=CC(=O)N1CCC[C@@H](n2nc(-c3ccc(Oc4ccccc4)cc3)c3c(N)ncnc32)C1 [Ibrutinib],1 ± 0.018,0.977 ± 0.021,0.955 ± 0.041,0.947 ± 0.029,0.966 ± 0.026,0.964 ± 0.026,0.931 ± 0.03,0.864 ± 0.011,0.866 ± 0.045,0.88 ± 0.022,0.6991 ± 0.0047
COc1c(OCCCN2CCOCC2)ccc2c1N=C(NC(=O)c1cnc(N)nc1)N1CCN=C21 [Copanlisib],0.966 ± 0.029,0.926 ± 0.031,0.9 ± 0.019,0.633 ± 0.029,0.502 ± 0.016,0.374 ± 0.0084,0.273 ± 0.0095,0.164 ± 0.0066,0.147 ± 0.0029,0.18 ± 0.0026,0.159 ± 0.0078
COc1cccc2c1C(=O)c1c(O)c3c(c(O)c1C2=O)C[C@@](O)(C(=O)CO)C[C@@H]3O[C@H]1C[C@H](N)[C@H](O)[C@H](C)O1 [Doxorubicin Hydrochloride],0.975 ± 0.028,0.937 ± 0.042,0.934 ± 0.024,0.89 ± 0.024,0.66 ± 0.036,0.39 ± 0.0073,0.313 ± 0.01,0.201 ± 0.0045,0.0143 ± 0.0029,0.0402 ± 0.002,0.03487 ± 0.00029
